Assay results published in the supplement of paper PMC10307832.

Legend:
Assay in all cases: relative viability (nuclei count vs DMSO), 5 days (fraction); higher = more cells survive
[1] = compound: Cn1nnc2c(C(N)=O)ncn2c1=O [Temozolomide] + Nc1nc2[nH]cc(CCc3ccc(C(=O)N[C@@H](CCC(=O)O)C(=O)O)cc3)c2c(=O)[nH]1 [Pemetrexed] (partner 0.2 µM)
Method in brief: (§1)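 Lung cancer cell lines were seeded in 1536-well plates and dosed by pin tool the next day, with either a single drug or a fixed anchor-drug dose combined with five library-drug doses (not always all listed) spaced in √10 steps. Five days later, one step fixed the cells and stained their nuclei (final 0.05% Triton X-100, 1% formaldehyde, 1 ug/ml Hoechst), and nuclei were counted on 4× images. Relative viability is the nuclei count in treated wells divided by the count in vehicle wells, and each value is the median of duplicate plates.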

AZD5582 + OSI-027 = compound: C[C@@H](C(=O)N[C@@H](C1CCCCC1)C(=O)N2CCC[C@H]2C(=O)N[C@@H]3[C@@H](CC4=CC=CC=C34)OCC#CC#CCO[C@@H]5CC6=CC=CC=C6[C@@H]5NC(=O)[C@@H]7CCCN7C(=O)[C@H](C8CCCCC8)NC(=O)[C@H](C)NC)NC [AZD5582] + COc1cccc2cc(-c3nc([C@H]4CC[C@H](C(=O)O)CC4)n4ncnc(N)c34)[nH]c12 [OSI-027] (partner 0.5 µM)
Method in brief: as §1

Temozolomide = compound: Cn1nnc2c(C(N)=O)ncn2c1=O [Temozolomide]
Method in brief: (§2)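 Lung cancer cell lines were seeded into 1536-well plates, kept overnight at 37 °C and pinned with five library-drug doses (not always all listed) spaced by √10. After 5 days, nuclei were Hoechst-stained, imaged at 4× and counted with MetaXpress. Viability is treated-well nuclei over vehicle-well nuclei, taken as a median across plates. Plates needed control CV below 25% and at least one doubling.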

AZD5582 = compound: C[C@@H](C(=O)N[C@@H](C1CCCCC1)C(=O)N2CCC[C@H]2C(=O)N[C@@H]3[C@@H](CC4=CC=CC=C34)OCC#CC#CCO[C@@H]5CC6=CC=CC=C6[C@@H]5NC(=O)[C@@H]7CCCN7C(=O)[C@H](C8CCCCC8)NC(=O)[C@H](C)NC)NC [AZD5582]
Method in brief: as §2

Cell Line | relative viability ([1]; first compound 0.2 µM) | relative viability ([1]; first compound 0.6325 µM) | relative viability ([1]; first compound 2 µM) | relative viability ([1]; first compound 6.325 µM) | relative viability ([1]; first compound 20 µM) | relative viability (AZD5582 + OSI-027; first compound 0.001581 µM) | relative viability (AZD5582 + OSI-027; first compound 0.005 µM) | relative viability (AZD5582 + OSI-027; first compound 0.01581 µM) | relative viability (AZD5582 + OSI-027; first compound 0.05 µM) | relative viability (Temozolomide; 0.2 µM) | relative viability (Temozolomide; 0.6325 µM) | relative viability (Temozolomide; 2 µM) | relative viability (Temozolomide; 6.325 µM) | relative viability (Temozolomide; 20 µM) | relative viability (AZD5582; 0.001581 µM) | relative viability (AZD5582; 0.005 µM) | relative viability (AZD5582; 0.01581 µM) | relative viability (AZD5582; 0.05 µM)
201T | 0.346 | 0.345 | 0.398 | 0.339 | 0.316 | 0.721 | 0.831 | 0.675 | 0.492 | 0.978 | 1 | 1.01 | 0.961 | 0.977 | 1.03 | 1.15 | 0.971 | 1.21
A549 |  |  |  |  |  |  |  |  |  | 1.04 | 1.02 | 0.986 | 0.913 | 0.998 | 0.876 | 1.01 | 0.928 | 0.999
A-427 | 1.01 | 0.919 | 0.957 | 0.783 | 0.549 | 0.341 | 0.44 | 0.414 | 0.31 | 1.04 | 0.996 | 1.03 | 0.713 | 0.46 | 0.917 | 0.971 | 0.882 | 0.721
ABC-1 |  |  |  |  |  | 0.491 | 0.608 | 0.375 | 0.488 | 1.07 | 0.925 | 1.08 | 0.958 | 1.02 | 0.898 | 1.03 | 0.767 | 0.936
BEN | 0.801 | 0.92 | 0.936 | 0.741 | 0.841 | 0.295 | 0.301 | 0.349 | 0.282 | 0.956 | 0.94 | 1.03 | 0.813 | 0.766 | 0.926 | 1.01 | 1.05 | 0.828
CAL-12T | 1.34 | 1.12 | 1.1 | 1.16 | 1.39 | 0.239 | 0.339 | 0.281 | 0.323 | 0.908 | 1.04 | 0.959 | 0.95 | 0.95 | 0.647 | 0.724 | 0.784 | 0.551
COR-L23 | 0.188 | 0.211 | 0.19 | 0.184 | 0.217 | 0.799 | 0.721 | 0.768 | 0.756 | 1.19 | 1.04 | 1.05 | 1.04 | 0.955 | 1.02 | 1.11 | 0.966 | 1.03
COR-L 105 | 1.12 | 1.07 | 1.02 | 1.06 | 1.06 | 0.716 | 0.984 | 0.517 | 0.671 | 0.895 | 1.02 | 0.993 | 0.883 | 0.507 | 0.936 | 1.11 | 0.876 | 1.02
Calu-6 |  |  |  |  |  |  |  |  |  | 1.08 | 1 | 1.07 | 0.954 | 0.99 | 0.83 | 0.724 | 0.989 | 0.573
ChaGo-K-1 | 0.258 | 0.256 | 0.263 | 0.257 | 0.246 | 0.497 | 0.596 | 0.57 | 0.545 | 1.06 | 0.983 | 1.08 | 0.933 | 0.928 | 0.978 | 1.02 | 0.971 | 0.975
EBC-1 |  |  |  |  |  |  |  |  |  | 0.997 | 1.01 | 1.06 | 0.917 | 1.09 | 0.867 | 0.95 | 0.964 | 0.948
EKVX |  | 0.38 | 0.352 | 0.388 | 0.305 | 0.667 | 0.852 | 0.687 | 0.778 | 0.618 | 0.97 | 0.967 | 0.921 | 0.66 | 0.957 | 1.13 | 0.794 | 1.01
EMC-BAC-2 | 0.468 | 0.445 | 0.485 | 0.415 | 0.509 | 0.295 | 0.341 | 0.323 | 0.273 | 1.07 | 1.07 | 1.03 | 0.943 | 1 | 0.835 | 0.993 | 0.791 | 0.891
EPLC-272H | 0.321 | 0.322 | 0.356 | 0.247 | 0.317 | 0.121 |  | 0.274 | 0.0867 | 0.98 | 0.972 | 0.997 | 0.859 | 0.677 | 0.263 |  | 0.55 | 0.116
H3255 |  | 0.544 | 0.59 | 0.543 | 0.336 | 0.627 | 0.582 | 0.514 | 0.544 |  | 0.96 | 0.993 | 0.884 | 0.231 | 0.94 | 1 | 0.862 | 0.831
HARA | 0.203 | 0.228 | 0.269 | 0.2 | 0.273 | 0.414 | 0.544 | 0.362 | 0.307 | 0.979 | 1.02 | 1.05 | 0.886 | 0.831 | 0.974 | 1.1 | 0.746 | 0.662
HCC-15 | 0.24 | 0.221 | 0.227 | 0.207 | 0.228 | 0.555 | 0.617 | 0.504 | 0.636 | 1.12 | 1.01 | 1 | 0.996 | 1.07 | 0.862 | 0.933 | 0.739 | 0.847
HCC-44 | 0.688 | 0.669 | 0.699 | 0.707 | 0.653 | 0.42 | 0.39 | 0.251 | 0.255 | 1.02 | 0.986 | 0.987 | 0.999 | 1.01 | 0.822 | 0.724 | 0.872 | 0.483
HCC-78 | 0.896 | 0.921 | 0.927 |  | 0.958 | 0.382 | 0.406 | 0.33 | 0.311 | 0.762 | 0.937 | 1.04 | 0.906 | 0.931 | 0.85 | 1.08 | 0.834 | 0.746
